Assay results as given in patent publication US11219603B2, “Stable dosage form of etidronate-cytarabine conjugate, and use thereof” (MAXWELL BIOTECH GROUP LTD., priority 2015, dated 2022).

Assay: Physical and hydrolytic stability of reconstituted lyophilizates in intravenous media
Format: physicochemical
Conditions: reconstituted lyophilizate, low dose in D5W, 25° C., 6 hours
Procedure: The lyophilized dosage form was evaluated for compatibility with three different media for intravenous administration within 24 hours: sterile water for injection (SWFI), D5W and 0.9% sodium chloride solution. […] The lyophilized dosage form was first dissolved in 5 mL SWFI to the MBC-11 trisodium salt concentration of 20 mg/mL, and then it was placed in glass vials and diluted with each medium for intravenous administration until the infusion doses under study were obtained. The solutions thus obtained were kept at 2-8° C. and 25° C. for 24 hours, and the evaluation of the samples in appearance, content and purity at the points t=0, 2, 4, 6 and 24 hours was performed.
At each control point, solutions for intravenous administration with a high dosage were evaluated in appearance, after which they were diluted to a nominal analytical concentration of 1 mg/mL with a solvent used in the analytical method for evaluating the substance purity. The samples thus obtained were used to determine the purity and content of the active pharmaceutical ingredient.

SMILES: CC(O)(P(=O)(O)O)P(=O)(O)OP(=O)(O)OC[C@H]1O[C@@H](n2ccc(N)nc2=O)[C@@H](O)[C@@H]1O (stereo partly shown) [MBC-11]
- increase in the Ara-CMP content: 0.5%
